According to patent publication US6825185B2, “Substituted aryl compounds as novel cyclooxygenase-2 selective inhibitors, compositions and methods of use” (NitroMed, Inc., priority 2000, dated 2004):

Columns and labels:
COX-2 = biological target: T1, COX-2 (Homo sapiens, UniProt P35354); assay: Human COX-2 enzyme activity (COX Inhibitor Screening Assay, prostaglandin EIA); format: biochemical; design: purchased Cayman Chemical; conditions: test compound at 10 μM
T1 sequence (P35354 18-604): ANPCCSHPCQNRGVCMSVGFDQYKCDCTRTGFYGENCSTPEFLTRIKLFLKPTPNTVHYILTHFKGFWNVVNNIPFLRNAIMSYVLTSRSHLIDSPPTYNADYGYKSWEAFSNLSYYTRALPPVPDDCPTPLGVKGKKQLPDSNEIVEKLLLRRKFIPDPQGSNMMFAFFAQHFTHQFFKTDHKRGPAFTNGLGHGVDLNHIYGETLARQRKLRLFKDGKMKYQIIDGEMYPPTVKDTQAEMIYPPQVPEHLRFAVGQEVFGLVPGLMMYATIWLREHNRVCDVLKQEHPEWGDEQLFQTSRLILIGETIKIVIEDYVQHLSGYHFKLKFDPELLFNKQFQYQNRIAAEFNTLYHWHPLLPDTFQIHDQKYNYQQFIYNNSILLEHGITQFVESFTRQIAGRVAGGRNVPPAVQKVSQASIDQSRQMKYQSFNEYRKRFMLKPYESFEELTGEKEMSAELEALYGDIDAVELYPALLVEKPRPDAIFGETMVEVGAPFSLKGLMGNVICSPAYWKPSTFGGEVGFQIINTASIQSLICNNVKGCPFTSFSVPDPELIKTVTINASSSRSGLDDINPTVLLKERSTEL
Description: The human COX-1 and COX-2 enzyme activities and the measurement of the prostaglandin products synthesized were performed using the COX Inhibitor Screening Assay (Cayman Chemical, Ann Arbor, Mich.), which also contained the Prostaglandin Screening EIA Kit, used for prostaglandin quantification). The test compounds were dissolved at 50 times the highest final reaction concentration in DMSO or any other suitable solvent as stock solutions. These stock solutions were then diluted in the same solvent. Eight glass test tubes (13×100 mm) were placed in a 25° C. water bath. To each test tube was added 950 μL of reaction buffer (0.1 M Tris-HCl, pH 8.0, containing 5 mM EDTA, and 2 mM phenol), 10 μL of 100 µM heme solution, and 10 μL (5 units) of either human COX-1 or COX-2 enzyme and the resulting mixture was incubated for 2 minutes. Twenty μL of the solvent was added to one tube (100% initial activity or solvent control) and 20 μL of each dilution of the test compound was added to one tube each. Each tube was vortexed immediately after the addition. The enzyme was incubated with the inhibitor for 20 minutes at 25° C. The enzymatic reaction was then initiated by the addition of 10 μL of freshly prepared 10 mM arachidonic acid (neutralized with KOH), vortexed and then incubated for 2 minutes (or, in some cases as indicated, 30 seconds) at 37° C. The reaction was terminated by the addition of 50 μL of 1 M HCl, vortexed and placed at room temperature. One hundred μL of a saturated stannous chloride solution (50 mg/mL of 0.1 M HCl) was added and the reaction mixture was allowed to stand at room temperature for at least 5 minutes.
The prostaglandins (PG) produced in the reactions were assayed, after a 2,000-fold dilution, using the Prostaglandin Screening EIA Kit (Cayman Chemical, Ann Arbor, Mich.). The assay contains an antibody with broad specificity for all the prostaglandin families (PGF, PGE, PGD, and thromboxane B-type) synthesized in the COX-1/COX-2 reactions. The synthesized prostaglandin competes with a PG-tagged acetylcholine esterase tracer for binding to the PG antibody. Binding of synthesized PG lowers the colorimetric development of the Ellman's Reagent (computed as %B/B0). The actual amount of synthesized PG was interpolated from a standard curve using known amounts of supplied prostaglandin E2 (PGE2) (PGE2 concentration vs. %B/B0). The data generated were the mean±standard deviation of triplicate wells in the EIA for a single reaction at a given inhibitor concentration.

COX-1 = COX-1 (Homo sapiens, UniProt P23219); assay: COX-1 enzyme activity in human whole blood (A23187 stimulated, thromboxane B2 EIA); format: cell-based; design: Human blood (≈50 mL) from male or female donors who had not received any aspirin or NSAIDs for 14 days; endogenous in cells; host or cells: human whole blood from donors; conditions: test compound at 100 μM
Chain of COX-1 (P23219 24-599): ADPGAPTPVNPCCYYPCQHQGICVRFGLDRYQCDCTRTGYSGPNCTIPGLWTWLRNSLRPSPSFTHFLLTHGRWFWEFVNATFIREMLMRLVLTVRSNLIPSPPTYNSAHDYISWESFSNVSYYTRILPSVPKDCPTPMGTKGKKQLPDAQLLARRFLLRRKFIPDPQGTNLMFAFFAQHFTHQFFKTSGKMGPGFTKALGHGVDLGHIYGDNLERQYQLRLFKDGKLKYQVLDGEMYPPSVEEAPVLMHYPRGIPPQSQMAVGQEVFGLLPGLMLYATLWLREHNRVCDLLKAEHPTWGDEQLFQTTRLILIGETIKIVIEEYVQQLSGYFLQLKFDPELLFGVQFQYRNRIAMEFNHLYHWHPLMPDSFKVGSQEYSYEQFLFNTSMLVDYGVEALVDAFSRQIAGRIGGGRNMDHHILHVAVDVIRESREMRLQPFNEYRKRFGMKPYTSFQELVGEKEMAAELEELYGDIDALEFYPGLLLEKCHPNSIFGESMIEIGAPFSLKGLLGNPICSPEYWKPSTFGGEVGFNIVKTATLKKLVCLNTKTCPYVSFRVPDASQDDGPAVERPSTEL

SMILES | COX-2 Inhibition (% at 10 μM) (COX-2) [%] | COX-1 Inhibition (% at 100 μM) (COX-1) [%]
CS(=O)(=O)c1ccc(-c2cc3c(cc2C=C2CCCC2)OCO3)cc1 [Example 10a, 4-(6-(Cyclopentylidenemethyl)(2H-benzo(3,4-d)1,3-dioxolan-5-yl))-1-(methylsulfonyl)benzene] | 100 | 70
CS(=O)(=O)c1ccc(-c2cc3c(cc2C(=O)c2ccccc2)OCO3)cc1 [Example 3d, 6-(4-(Methylsulfonyl)phenyl)(2H-benzo(d)1,3-dioxolan-5-yl) phenyl ketone] | 90 | 75
CS(=O)(=O)c1ccc(-c2cc3c(cc2Cc2cccnc2)OCO3)cc1 [Example 6c, 4-(Methylsulfonyl)-1-(6-(3-pyridylmethyl)(2H-benzo(3,4-d)1,3-dioxolan-5-yl))benzene] | 65 | 20
CS(=O)(=O)c1ccc(-c2cc3c(cc2CN2CCCCC2=O)OCO3)cc1 [Example 9c] | 90 | 35
CS(=O)(=O)c1ccc(-c2cc3c(cc2Cc2cc(F)cc(F)c2)OCO3)cc1 [Example 15c, 5-(1-(3′,5′-Difluorophenyl)methyl)-1,2-methylenedioxy-4-(4-methylsulfonylphenyl)benzene] | 90 | 75
CS(=O)(=O)c1ccc(-c2cc3c(cc2CC2CCCCC2)OCO3)cc1 [Example 1e, 1-(6-(Cyclohexylmethyl)(2-H-benzo(3,4-d)1,3-dioxolen-5-yl))-4-(methylsulfonyl) benzene] | 100 | 40
